According to patent US10556860B2, “hTERT modulators and methods of use” (Arizona Board of Regents on Behalf of the University of …, priority 2015, dated 2020):

Key:
[1] = molecular target: G146A 5-12 G-quadruplex of hTERT core promoter; experiment: FRET assay for Kd, G146A probe; assay type: binding, human
Procedure: FRET assay for compound screening and determination of Kd value. FRET probes of WT, G124/125A, and G146A of the 5-12 G-quadruplex were synthesized and labeled with FAM (Ex. 490 nm/Em. 520 nm) and TAMRA (Ex. 560 nm/Em. 580 nm) at each end by MGW Operon Inc. The WT probe (50 nM) was annealed in a buffer containing 10 mM Tris-HCl (pH 7.5) and 5 mM KCl by heating at 95° C. for 5 min and slowly cooling to room temperature. Compounds (50 μM) and probe were incubated for 1 h at room temperature. The same volume of DMSO served as a control. For Kd value determination, the WT, G124/125A, and G146A probes were annealed, and then several concentrations of compound were treated for 1 h at room temperature. Dose-dependent fluorescence intensity at 520 nm was measured by a microplate reader (BioTek Synergy HT). The data were corrected with the blank signal of buffer and compound. The relative fluorescence intensity compared to DMSO was used for binding curve fitting to determine Kd value using GraphPad Prism software.
The hTERT core promoter region includes 12 runs of consecutive guanines that form two G-quadruplexes in tandem on the G-rich strand. […] When the G-quadruplex is folded, two fluorophores are in proximity, which leads to a decrease in FAM fluorescence. […]

[2] = test system: UACC-903, a G124A mutant melanoma cell line; experiment: Viability of G124A mutant melanoma cells; assay type: cell-based, human; conditions: 72 h
Procedure: FIGS. 13A-13C are a set of graphs showingselective reduction in viability (A) and hTERT expression (B) in melanoma cells carrying hTERT core promotor mutations. NHM-002 (normal human melanocytes) and a G124A mutant cell line were treated with vehicle, 1.25, 2.5, and 5 μM GTC365 for 72 h. Viability was reduced in hTERT mutant melanoma cells by 50% (left). […] (C) Differential response to GTC365 in WT and promoter mutant cell lines.
Next, to assess the selectivity of GTC365 for hTERT-dependent cancer cells relative to normal precursorcells, we compared the effects of a range of […] on viability at 72 h in normal humanmelanocytes (NHM-002) relative to those of UACC-903, aG124A mutant (FIG. 13A). […] To confirm that the reduction in cell viability was aresult of hTERT downregulation, we performed reverse transcription and qPCR to measure the mRNA level of hTERT expression in cells treated with DMSO or 5 μMGTC365. hTERT expression was reduced by 41% in themelanoma cell line after 72 h but was undetectable in normalmelanocytes, even in the absence of GTC365 (FIG. 13B). Finally, tobroadly assess the selectivity of GTC365 for hTERT promotermutant versus WT cells, we conducted a 6-point 72 h MTSproliferation assay to determine EC50s in 14 additional melanoma cell lines with characterized TERT promoter status([…]) (FIG. 13C). […]

[3] = test system: G138/139A 5-12 G-quadruplex; experiment: CD kinetics, temperature-jump, G138/139A; assay type: biochemical, human; conditions: 2 equiv
Procedure: (§1) FIGS. 10A and 10B are a set of graphs showing (A) comparison of kinetics of initial folding rate of the WT 5-12 G-quadruplex with GTC365 and BRACO-19 by the temperature-jump method. (B) Enhanced initial folding rate of the 5-12 G-quadruplexes carrying different hTERT mutants by GTC365. The time-course CD signal of preheated oligo with compound or DMSO in a buffer containing 10 mM Tris-HCl (pH 7.5) and 5 mM KCl was monitored at 262 nm and 25° C.
(§2) For the kinetics analysis using the temperature-jump method, theoligo in a buffer containing 10 mM Tris-HCl (pH 7.5) was heated forl min at 95° C., and then a mixture of KCl and compound was addedand incubated for 1 min. Meanwhile, the CD cuvette was also heatedat 95° C. As soon as the sample in the CD cuvette at the hightemperature was placed in the CD chamber, a time-dependent CDsignal at 262 nm was recorded immediately. The initial folding ratewas determined by one-phase association curve fitting (eq 1) of thekinetics curve using GraphPad Prism 5: Y=Y0+(Plateau−Y0)*(1−e^−kx) (1) where Y is the CD signal at any time point x, Y0 is the Y value whentime (x) is zero, plateau is the Y value at infinite time, and k is the rateconstant.
(§3) To evaluate the comparative effects of GTC365 relative to BRACO-19 on the cooperative folding process, we carried out two different experiments. […]

G146A 5-12 G-quadruplex = experiment: CD kinetics, temperature-jump, G146A; assay type: biochemical, human; conditions: 2 equiv
Procedure: as §1, §2, §3

In the case of `N=C(N)NCCCS(=O)(=O)Nc1ccc(Nc2c3ccccc3nc3cc([N+](=O)[O-])ccc23)cc1` [GTC365], the “Kd value higher than WT and G124/125A” value [1] was 1.5 fold, the viability ([2]; 5 μM) was “below 50%” and the reduction of viability ([2]; hTERT mutant melanoma cells, up to 5 μM) was 50%. The “effect on initial folding rate” value [3] was “insignificant” and the “increase of initial folding rate” value (G146A 5-12 G-quadruplex) was 0.054 s⁻¹.
